As usually defined, the melting point is the temperature of the solid-liquid transition.

The subject of data set [1] is PTZ-induced clonic seizures. The data set is described as follows: PTZ85 assay, latency of clonic seizures. The class given is in vivo. To be noted: 1800 micromoles, male cd1/cr mice. Here is the method: SCMET (PTZ85) Assay. Male CD1/CR mice weighing from 25-35 g are administrated test compounds (range of 5 doses) 15 minutes prior to PTZ. PTZ is administrated subcutaneously, just caudal to the cranium, at a dose of 85 mg/kg. Animals are then caged individually and observed for 15 minutes. The occurrence and latency to clonic and/or tonic convulsions are recorded. The mice are used once. Ten mice are used in each dose group. […] ED50 is determined from a graph of percentage protection vs log(dose) following the known method of Litchfield^18, where percentage protection refers to the percent of animals in each dose group which are protected against seizures. The compounds of interest were tested at an equivalent dose of 1800 micromoles on male cd1/cr mice using the PTZ85 Assay to induce clonic (repetitive seizures). Both the latency (time of seizure onset) and the number of animals protected increased with the size of the ring, or with increased lipophilicity.

For data set [2], the system named is Maximal Electroshock (MES) seizures. Kind of data set: Maximal electroshock (MES) test, rats, oral, time to peak effect. The class given is in vivo. To be noted: for Anticonvulsant potency compared with VPA (in words): summary of Table 2. The protocol: Anticonvulsant testing was conducted at the antiepileptic screening facility of the National Institute for Neurological Disorders and Stroke in Rockville, Md. Initial tests were done in mice (i.p.) followed by oral and i.p. administration to rats. Neurotoxicity was evaluated with the rotarod test. Maximal electroshock (MES) and subcutaneous methylene tetrazole (SCMET) or pentylene tetrazole (PTZ) were the most common tests performed. Typical procedures are described below. MES Assay. Male CD1/CR mice weighing from 25-35 g are administrated test compounds 15 minutes prior to MES. Mice are challenged by pulsed electrical stimulation (50 mA, 0.4 s duration, pulse width 0.5 ms, 60 pulses/sec) via corneal electrodes to induce seizure. Mice are observed post-stimulation for the onset of tonic seizures, and considered to have a tonic seizure only if there is a prolonged extension (>90° from plane of body) of the hind legs. […] Ten mice are used in each group. A number of VPA analogues and their sodium salts were tested for their efficacy as anticonvulsants and for their toxicity using the MES Assay and rotarod test.
(Protection in the maximal electroshock model is a classic sign of anticonvulsant action.)

Data set [3] concerns Subcutaneous Methylene Tetrazole (SCMET) seizures. Kind of data set: Subcutaneous methylene tetrazole (SCMET) test, rats, oral, time to peak effect. The class given is in vivo.
Data set [4] has as its system rotarod test (neurotoxicity). The data set is described as follows: Rotarod neurotoxicity test (TOX), rats, oral. The class given is in vivo. Here is the method: Anticonvulsant testing was conducted at the antiepileptic screening facility of the National Institute for Neurological Disorders and Stroke in Rockville, Md. Initial tests were done in mice (i.p.) followed by oral and i.p. administration to rats. Neurotoxicity was evaluated with the rotarod test. Maximal electroshock (MES) and subcutaneous methylene tetrazole (SCMET) or pentylene tetrazole (PTZ) were the most common tests performed. Typical procedures are described below.
Rotorod Test. Acute drug induced neurotoxicity is detected in mice using the standard rotorod test. An untreated mouse, when placed on a 6 rpm rotation rod, can maintain its equilibrium for a prolonged period of time.
A number of VPA analogues and their sodium salts were tested for their efficacy as anticonvulsants and for their toxicity using the MES Assay and rotarod test. In particular, the following compounds (as shown in the structures below) were tested: 332059U (sodium salt of VPA), 325071 (known compound, tested for comparison), 325073A (metabolite of VPA), 332060U (4,4-difluoro-2-propylpentanoate, fluorinated analogue of VPA), 341031, and 341032U (conjugated (E,Z)-2,3′-diene VPA analogues).

Take `O=C([O-])/C=C/C=C1CCCCCCC1.[Na+]`: in data set [1], the “Latency of Clonic Seizures” value came out at 855 s and the “Number of Mice Protected Against Clonic Seizures (Out of 10)” value came out at 9.
For `O=C([O-])/C=C/C=C1CCCCCC1.[Na+]` the same measures were 778 s and 7.
As for `O=C([O-])/C=C/C=C1CCCCC1.[Na+]`, in data set [1], the “Latency of Clonic Seizures” value is 661 s and the “Number of Mice Protected Against Clonic Seizures (Out of 10)” value amounted to 4.
The corresponding values for `O=C([O-])/C=C/C=C1CCCC1.[Na+]` are 589 s and 2.
With `C/C=C\C(=C/C)C(=O)[O-].[Na+]` [325071A, Sodium (2E,3Z)-2-ethylidenpent-3-enoate], the “MES N/F = number of animals protected relative to number tested” value in data set [2] (80 mg/kg, 0.25 h) is 0/4; in data set [2] (80 mg/kg, 0.5 h), 0/4; in data set [2] (80 mg/kg, 1.0 h), 0/4; in data set [2] (80 mg/kg, 2.0 h) it was 0/4; in data set [2] (80 mg/kg, 4.0 h), 0/4; in data set [2] (200 mg/kg, 0.25 h), 0/4. Besides, the “MES N/F = number of animals protected relative to number tested” value is reported as 1/4 in data set [2] (200 mg/kg, 0.5 h); 0/4 in data set [2] (200 mg/kg, 1.0 h); 1/4 in data set [2] (200 mg/kg, 2.0 h); 0/4 in data set [2] (200 mg/kg, 4.0 h). The “SCMET N/F = number of animals protected relative to number tested” value in data set [3] (80 mg/kg, 0.25 h) is listed as 0/4; in data set [3] (80 mg/kg, 0.5 h), 0/4; in data set [3] (80 mg/kg, 1.0 h), 1/4; in data set [3] (80 mg/kg, 2.0 h) it was 0/4; in data set [3] (80 mg/kg, 4.0 h), 0/4; in data set [3] (200 mg/kg, 0.25 h), 2/4. Moreover, the “SCMET N/F = number of animals protected relative to number tested” value in data set [3] (200 mg/kg, 0.5 h) was 0/4; in data set [3] (200 mg/kg, 1.0 h) it was 0/4; in data set [3] (200 mg/kg, 2.0 h) it was 1/4; in data set [3] (200 mg/kg, 4.0 h), 1/4. The “TOX: N/F = number of animals that failed the rotarod test to numbers tested” value (shortened to “TOX: N/F = number”) in data set [4] (200 mg/kg, 0.25 h) is 0/8; in data set [4] (200 mg/kg, 0.5 h) it was 0/8; in data set [4] (200 mg/kg, 1.0 h), 0/8; in data set [4] (200 mg/kg, 2.0 h), 0/8; in data set [4] (200 mg/kg, 4.0 h) it was 0/4.
For the compound `CCCC(CC(C)(F)F)C(=O)[O-].[Na+]` (stereo not shown) [332060U, Sodium 4,4-difluoro-2-propylpentanoate], the “SCMET N/F = number of animals protected relative to number tested” value in data set [3] (100 mg/kg, 0.25 h) is given as 1/4; in data set [3] (100 mg/kg, 0.5 h), 1/4; in data set [3] (100 mg/kg, 1.0 h), 0/4; in data set [3] (100 mg/kg, 2.0 h) it was 0/4; in data set [3] (100 mg/kg, 4.0 h), 0/4; in data set [3] (200 mg/kg, 0.25 h), 1/4. Also, the “SCMET N/F = number of animals protected relative to number tested” value is recorded as 1/4 in data set [3] (200 mg/kg, 0.5 h); 3/4 in data set [3] (360 mg/kg, 0.25 h); 0/4 in data set [3] (360 mg/kg, 0.5 h); 2/4 in data set [3] (360 mg/kg, 1.0 h); 1/4 in data set [3] (360 mg/kg, 2.0 h); 0/4 in data set [3] (360 mg/kg, 4.0 h). Moreover, the “Anticonvulsant efficacy in relation to neurotoxicity (in words)” value in data set [3] (summary of Table 2) was “effective at doses that do not demonstrate neurotoxicity”. Moreover, the “TOX: N/F = number” value in data set [4] (100 mg/kg, 0.25 h) is on record as 0/4; in data set [4] (100 mg/kg, 0.5 h), 0/4; in data set [4] (100 mg/kg, 1.0 h), 0/4; in data set [4] (100 mg/kg, 2.0 h) it was 0/4; in data set [4] (100 mg/kg, 4.0 h), 0/4; in data set [4] (200 mg/kg, 0.25 h), 0/4. Moreover, the “TOX: N/F = number” value is given as 0/4 in data set [4] (200 mg/kg, 0.5 h); 0/4 in data set [4] (360 mg/kg, 0.25 h); 0/4 in data set [4] (360 mg/kg, 0.5 h); 0/4 in data set [4] (360 mg/kg, 1.0 h); 0/4 in data set [4] (360 mg/kg, 2.0 h); 0/4 in data set [4] (360 mg/kg, 4.0 h).
For `C/C=C\C(=C/C(C)C)C(=O)[O-].[Na+]` [341031U, Sodium (2E)-4-methyl-2-[(1Z)-prop-1-en-1-yl]pent-2-enoate], the “MES N/F = number of animals protected relative to number tested” value in data set [2] (200 mg/kg, 0.25 h) is recorded as 3/4; in data set [2] (200 mg/kg, 0.5 h) it was 2/4; in data set [2] (200 mg/kg, 1.0 h), 0/4; in data set [2] (200 mg/kg, 2.0 h) it was 0/4; in data set [2] (200 mg/kg, 4.0 h), 0/4. Besides, in data set [2], the “Anticonvulsant potency compared with VPA (in words)” value was “more potent than VPA”. For the same compound, the “TOX: N/F = number” value in data set [4] (200 mg/kg, 0.25 h) is reported as 0/4; in data set [4] (200 mg/kg, 0.5 h), 0/4; in data set [4] (200 mg/kg, 1.0 h) it was 0/4; in data set [4] (200 mg/kg, 2.0 h) it was 0/4; in data set [4] (200 mg/kg, 4.0 h), 0/4.
Consider `CC/C=C(\C=C(C)C)C(=O)[O-].[Na+]` [341032U, Sodium (2E)-2-(2-methylprop-1-en-1-yl)pent-2-enoate], for which the “MES N/F = number of animals protected relative to number tested” value is on record as 4/4 in data set [2] (200 mg/kg, 0.25 h); 3/4 in data set [2] (200 mg/kg, 0.5 h); 1/4 in data set [2] (200 mg/kg, 1.0 h); 0/4 in data set [2] (200 mg/kg, 2.0 h); 0/4 in data set [2] (200 mg/kg, 4.0 h). Also, the “Anticonvulsant potency compared with VPA (in words)” value in data set [2] was “more potent than VPA”. In addition, the “TOX: N/F = number” value is listed as 3/4 in data set [4] (200 mg/kg, 0.25 h); 4/4 in data set [4] (200 mg/kg, 0.5 h); 1/4 in data set [4] (200 mg/kg, 1.0 h); 0/4 in data set [4] (200 mg/kg, 2.0 h); 0/4 in data set [4] (200 mg/kg, 4.0 h).
For `O=C(O)/C=C/C=C1CCCC1` [Compound 41a, (2E)-4-Cyclopentylidenebut-2-enoic Acid], the melting point lay in the range of 112 to 114 °C.
`O=C(O)/C=C/C=C1CCCCC1` [Compound 41b, (2E)-4-Cyclohexylidenebut-2-enoic Acid] had a melting point of 132 to 134 °C.
On the same count and under the same terms, then `O=C(O)/C=C/C=C1CCCCCC1` [Compound 41c, (2E)-4-Cycloheptylidenebut-2-enoic Acid], with 88 to 89 °C; and `O=C(O)/C=C/C=C1CCCCCCC1` [Compound 41d, (2E)-4-Cyclooctylidenebut-2-enoic Acid], with 114 to 116 °C; and `O=C(O)/C=C\C=C1CCCC1` [Compound 42a, (2Z)-4-Cyclopentylidenebut-2-enoic Acid], with 105 to 107 °C.
On the same count and under the same terms, then `O=C(O)/C=C\C=C1CCCCC1` [Compound 42b, (2Z)-4-Cyclohexylidenebut-2-enoic Acid], with 121 to 123 °C.
For the compound `O=C(O)/C=C\C=C1CCCCCC1` [Compound 42c, (2Z)-4-Cycloheptylidenebut-2-enoic Acid], the melting point lay within 86 to 88 °C.
Same read-out and setting: next, `O=C(O)/C=C\C=C1CCCCCCC1` [Compound 42d, (2Z)-4-Cyclooctylidenebut-2-enoic Acid]: 110 to 112 °C.

For the origin of these results see patent publication US20060223888A1, “Valproic acid analogues and pharmaceutical composition thereof” (priority 2002, published 2006).
